Results: patent EP2974743B1, “CYCLODEXTRIN CARRIER-BASED ARTEANNUIN COMPOUND CONJUGATE AND PREPARING METHOD THEREOF” (KPC Pharmaceuticals, Inc., priority 2012, dated 2014)

What was measured:
[1] = solubility in water; type: physicochemical; settings: in words
Source text: Also, the cyclodextrin carrier-based arteannuinoid compound is absorbed in merely a small amount when passing through stomach and small intestine of a human body, which is mainly absorbed by the large intestine, with a property of releasing in straight cecum. Therefore, the cyclodextrin carrier-based arteannuinoid compound according to the present disclosure can effectively enter the body of a patient, improving the bioavailability.

[2] = system: mouse hepatocarcinoma H22; settings: 300 mg/kg by gavage; cited from earlier work
[3] = system: HT 90; assay: MTT assay, tumor cell growth inhibition; type: cell-based; settings: human rectal cancer cells HT 90 (text: HT29), 48h culture with compound
Experimental: (§1) For example, 180 µl suspension of human rectal cancer cells HCT116, Lovo, SW480 and HT29 (at a concentration of 4×10^4/mL) was added to a 96 well plate, and pre-cultured under 5% CO2, 37°C and saturated moisture for 24h. 150 µl medium was replaced, and 20 µl medium containing molecular assembly at different concentrations was added. The cells were cultured for another 48h, with the medium free of a sample as a negative control, and a medium containing camptothecin, oxaliplatin or fluorouracil at different concentrations as positive controls. MTT assay was used to determine the OD value, and the growth inhibition rate was calculated. The inhibition of compounds at high, medium and low concentration on the tumor cell proliferation was observed. All the experiments above were performed in triplet. The results of in vitro experiment of the arteannuin cyclodextrin conjugate on human rectum and caecum cancer cell are shown in table 1. Table 1. The comparison of IC50 values (µM) for the cyclodextrin carrier-based arteannuinoid compound conjugate according to the present disclosure and some arteannuinoid compounds in several rectal cancer cells.

[4] = system: Lovo; assay: MTT assay, tumor cell growth inhibition; type: cell-based; settings: human rectal cancer cells Lovo, 48h culture with compound
Experimental: as §1

[5] = system: SW480; assay: MTT assay, tumor cell growth inhibition; type: cell-based; settings: human rectal cancer cells SW480, 48h culture with compound
Experimental: as §1

[6] = system: HCT116; assay: MTT assay, tumor cell growth inhibition; type: cell-based; settings: human rectal cancer cells HCT116, 48h culture with compound
Experimental: as §1

solubility in water [1]	IC50 [3]	IC50 [4]	IC50 [5]	IC50 [6]	Compound	anti-tumor rate [2]
almost insoluble in water					C[C@H]1[C@H](OC(=O)CCC(=O)O)O[C@@H]2O[C@@]3(C)CC[C@H]4[C@H](C)CC[C@@H]1[C@@]24OO3 [artesunate]	above 40%
	5.3 µM	0.72 µM	3.92 µM	0.84 µM	mono-6-artesunate-β-cyclodextrin conjugate [Example 1]	
